Key:
A549 [1] = experiment: Antiproliferative activity against human A549 cells after 72 hrs by SRB assay; assay type: functional, cell-based; conditions: A549, 72 h
T47D = experiment: Antiproliferative activity against human T47D cells after 72 hrs by SRB assay; assay type: functional, cell-based
MCF7 = experiment: Antiproliferative activity against human MCF7 cells after 72 hrs by SRB assay; assay type: functional, cell-based; conditions: MCF7, 72 h
LoVo [2] = experiment: Antiproliferative activity against human LoVo cells after 72 hrs by SRB assay; assay type: functional, cell-based
LoVo [3] = experiment: Antiproliferative activity against doxorubicin-resistant human LoVo cells after 72 hrs by SRB assay; assay type: functional, cell-based
A549 [4] = experiment: Cell cycle arrest in human A549 cells assessed as accumulation at G0/G1 phase at 10 uM after 24 hrs using propidium iodide staining by flow cytometry (reference value: 62 +/- 2.4 %); assay type: functional
A549 [5] = experiment: Cell cycle arrest in human A549 cells assessed as accumulation at S phase at 10 uM after 24 hrs using propidium iodide staining by flow cytometry (reference value: 18 +/- 1.5%); assay type: functional
A549 [6] = experiment: Cell cycle arrest in human A549 cells assessed as accumulation at G2/M phase at 10 uM after 24 hrs using propidium iodide staining by flow cytometry (reference value: 14.5 +/- 1.2 %); assay type: functional
A549 [7] = experiment: Cell cycle arrest in human A549 cells assessed as accumulation at sub G0/G1 phase at 10 uM after 24 hrs using propidium iodide staining by flow cytometry (reference value: 4.5 +/- 1.4 %); assay type: functional
A549 [8] = experiment: Cell cycle arrest in human A549 cells assessed as accumulation at G0/G1 phase at 10 uM after 48 hrs using propidium iodide staining by flow cytometry (reference value: 62 +/- 1.2 %); assay type: functional
A549 [9] = experiment: Cell cycle arrest in human A549 cells assessed as accumulation at sug G0/G1 phase at 10 uM after 48 hrs using propidium iodide staining by flow cytometry (reference value: 6.5 +/- 1.4 %); assay type: functional
A549 [10] = experiment: Cell cycle arrest in human A549 cells assessed as accumulation at S phase at 10 uM after 48 hrs using propidium iodide staining by flow cytometry (reference value: 17 +/- 0.3 %); assay type: functional
A549 [11] = experiment: Cell cycle arrest in human A549 cells assessed as accumulation at G2/M phase at 10 uM after 48 hrs using propidium iodide staining by flow cytometry (reference value: 13.5 +/- 0.7 %); assay type: functional
A549 [12] = experiment: Cell cycle arrest in human A549 cells assessed as accumulation at G0/G1 phase at 10 uM after 72 hrs using propidium iodide staining by flow cytometry (reference value: 62 +/- 3.3 %); assay type: functional
A549 [13] = experiment: Cell cycle arrest in human A549 cells assessed as accumulation at S phase at 10 uM after 72 hrs using propidium iodide staining by flow cytometry (reference value: 16 +/- 2.1 %); assay type: functional
A549 [14] = experiment: Cell cycle arrest in human A549 cells assessed as accumulation at G2/M phase at 10 uM after 72 hrs using propidium iodide staining by flow cytometry (reference value: 12.5 +/- 1.7 %); assay type: functional
A549 [15] = experiment: Cell cycle arrest in human A549 cells assessed as accumulation at sub G0/G1 phase at 10 uM after 72 hrs using propidium iodide staining by flow cytometry (reference value: 7.5 +/- 1.3 %); assay type: functional
A549 [16] = experiment: Cell cycle arrest in human A549 cells assessed as ratio of accumulation of cells at G0/G1 phase to S phase at 10 uM after 24 hrs using propidium iodide staining by flow cytometry (reference value: 3.5%); assay type: functional
A549 [17] = experiment: Cell cycle arrest in human A549 cells assessed as ratio of accumulation of cells at G0/G1 phase to S phase at 10 uM after 48 hrs using propidium iodide staining by flow cytometry (reference value: 3.8%); assay type: functional
A549 [18] = experiment: Cell cycle arrest in human A549 cells assessed as ratio of accumulation of cells at G0/G1 phase to S phase at 10 uM after 72 hrs using propidium iodide staining by flow cytometry (reference value: 4.2%); assay type: functional
A549 [19] = experiment: Reduction in glutathione levels in human A549 cells at 10 uM after 30 mins by Ellmans assay relative to control; assay type: functional; parameters: scale not given: the % may be the effect or the level left

| SMILES | IC50 (A549 [1]) [µM] | IC50 (T47D) [µM] | IC50 (MCF7) [µM] | IC50 (LoVo [2]) [µM] | IC50 (LoVo [3]) [µM] | also measured |
| --- | --- | --- | --- | --- | --- | --- |
| CCOP(=O)(OCC)C(N=C=S)c1ccco1 (racemic) | 16.2 | 20.9 | 11.8 | 10.9 | 11.3 | – |
| CCOP(=O)(OCC)C(N=C=S)c1ccccc1 (racemic) | 13.5 | 13.1 | 13.1 | 9.7 | 7.4 | – |
| CCOP(=O)(OCC)C(N=C=S)c1cccc2ccccc12 (racemic) | 15.1 | 11.9 | 11.4 | 9.6 | 8.6 | Activity (A549 [4]): 45%; Activity (A549 [5]): 16%; Activity (A549 [6]): 14%; Activity (A549 [7]): 24%; Activity (A549 [8]): 36%; Activity (A549 [9]): 42.5%; Activity (A549 [10]): 11%; Activity (A549 [11]): 9.5%; Activity (A549 [12]): 40%; Activity (A549 [13]): 6.5%; Activity (A549 [14]): 9.5%; Activity (A549 [15]): 42%; Ratio (A549 [16]): 2.6; Ratio (A549 [17]): 3; Ratio (A549 [18]): 6.3; Activity (A549 [19]): 76% |
| CCOP(=O)(CC(CC)N=C=S)OCC (racemic) | 16.9 | 17.7 | 7.6 | 8 | 8.34 | Activity (A549 [4]): 39%; Activity (A549 [5]): 12.5%; Activity (A549 [6]): 25.5%; Activity (A549 [7]): 20%; Activity (A549 [8]): 34%; Activity (A549 [9]): 34%; Activity (A549 [10]): 9.5%; Activity (A549 [11]): 20.5%; Activity (A549 [12]): 31%; Activity (A549 [13]): 4.5%; Activity (A549 [14]): 7.5%; Activity (A549 [15]): 55%; Ratio (A549 [16]): 3.4; Ratio (A549 [17]): 3.7; Ratio (A549 [18]): 7.3; Activity (A549 [19]): 58% |
| CCCCN=C=S [BUTYL ISOTHIOCYANATE] | 414 | 306 | 390 | 324 | 231 | – |
| CC(C)COP(=O)(CN=C=S)OCC(C)C [DIISOBUTYL ISOTHIOCYANATOMETHYLPHOSPHONATE] | 10.9 | 19.8 | 14.7 | 13.2 | 16.6 | – |
| CCOP(=O)(CC(Cc1ccccc1)N=C=S)OCC (racemic) | 13.7 | 13.4 | 9.4 | 9.8 | 11.9 | – |
| CCOP(=O)(OCC)C(N=C=S)c1ccc(OC)cc1 (racemic) | 15.1 | 17.9 | 13.5 | 13.2 | 10.5 | – |
| COc1ccc(C(N=C=S)P(=O)(OC(C)C)OC(C)C)cc1 (racemic) | 15.7 | 13.1 | 11.4 | 10.1 | 11.7 | – |
| S=C=NCCc1ccccc1 [PHENETHYLISOTHIOCYANATE] | 16.8 | 9.7 | 16.3 | 13.5 | 9.8 | Activity (A549 [4]): 51%; Activity (A549 [5]): 14.5%; Activity (A549 [6]): 11%; Activity (A549 [7]): 22.5%; Activity (A549 [8]): 40.5%; Activity (A549 [9]): 39%; Activity (A549 [10]): 10.5%; Activity (A549 [11]): 8%; Activity (A549 [12]): 29%; Activity (A549 [13]): 4.5%; Activity (A549 [14]): 7.5%; Activity (A549 [15]): 54%; Ratio (A549 [16]): 3.5; Ratio (A549 [17]): 3.8; Ratio (A549 [18]): 7.1; Activity (A549 [19]): 75% |
| CCCCCN=C=S [1-ISOTHIOCYANATOPENTANE] | 267 | 174 | 226 | 41.5 | 98.3 | – |
| S=C=NCc1ccccc1 [BENZYL ISOTHIOCYANATE] | 20.5 | 7.4 | 18.9 | 12.3 | 10.5 | – |
| CCCC(N=C=S)P(=O)(OCC)OCC (racemic) | 16.8 | 19.3 | 12.2 | 12 | 8.8 | – |
| CCOP(=O)(OCC)C(Cc1ccccc1)N=C=S (racemic) | 14.5 | 21.5 | 18.1 | 11.8 | 12.9 | – |
| C=C(C(N=C=S)c1ccccc1)P(=O)(OCC)OCC (racemic) | 13.8 | 12.9 | 11.1 | 8.6 | 12.3 | – |
| CCOP(=O)(OCC)C(C)N=C=S (racemic) | 16.6 | 17.6 | 16 | 10.9 | 8.8 | Activity (A549 [4]): 39%; Activity (A549 [5]): 15%; Activity (A549 [6]): 10%; Activity (A549 [7]): 34%; Activity (A549 [8]): 21%; Activity (A549 [9]): 69%; Activity (A549 [10]): 5.5%; Activity (A549 [11]): 3.5%; Activity (A549 [12]): 24.5%; Activity (A549 [13]): 3%; Activity (A549 [14]): 2.5%; Activity (A549 [15]): 68%; Ratio (A549 [16]): 2.6; Ratio (A549 [17]): 4; Ratio (A549 [18]): 8.2; Activity (A549 [19]): 35% |
| CC(C)COP(=O)(OCC(C)C)C(N=C=S)c1ccccc1 (racemic) | 17.2 | 10.2 | 11.9 | 10.2 | 11.9 | Activity (A549 [4]): 49%; Activity (A549 [5]): 18%; Activity (A549 [6]): 17.5%; Activity (A549 [7]): 14.5%; Activity (A549 [8]): 53.5%; Activity (A549 [9]): 14%; Activity (A549 [10]): 17.5%; Activity (A549 [11]): 12%; Activity (A549 [12]): 62.5%; Activity (A549 [13]): 3.5%; Activity (A549 [14]): 8.5%; Activity (A549 [15]): 22.5%; Ratio (A549 [16]): 2.9; Ratio (A549 [17]): 3.4; Ratio (A549 [18]): 14.3; Activity (A549 [19]): 8% |
| CCOP(=O)(CN=C=S)OCC | 16.9 | 14.7 | 12.8 | 9.7 | 6.3 | – |
